Experimental data: ChEMBL document CHEMBL4765323, “Design, synthesis, and biological evaluation of novel miconazole analogues containing selenium as potent antifungal agents” (Eur J Med Chem, 2020)
In brackets after ≈: the same amount, converted by molar mass.

Tests used:
Erythrocyte = assay: Hemolytic activity in rabbit RBC assessed as hemolysis ratio at 1 ug/ml measured after 3 hrs relative to control; assay type: ADME, cell-based, Oryctolagus cuniculus; details: dose 1 µg/ml
Candida albicans [1] = assay: Antifungal activity against Candida albicans 901 measured after 24 hrs by micro-broth dilution assay; assay type: functional
Candida albicans [2] = assay: Antibiofilm activity against FCZ-Resistant Candida albicans CPCC400616 assessed as sessile minimum inhibitory concentration of biofilm formation at 80% after 24 hrs by XTT assay; assay type: functional
Candida albicans [3] = assay: Antibiofilm activity against FCZ-Resistant Candida albicans CPCC400616 assessed as sessile minimum inhibitory concentration of biofilm formation at 80% after 6 hrs by XTT assay; assay type: functional
Candida albicans [4] = assay: Antifungal activity against fluconazole-resistant Candida albicans 632 measured after 24 hrs by micro-broth dilution assay; assay type: functional
Candida albicans [5] = assay: Antibiofilm activity against FCZ-Resistant Candida albicans CPCC400616 assessed as sessile minimum inhibitory concentration of biofilm formation at 50% after 3 hrs by XTT assay; assay type: functional
Candida albicans [6] = assay: Antifungal activity against Candida albicans CPCC400616 measured after 24 hrs by micro-broth dilution assay; assay type: functional
Candida albicans [7] = assay: Antifungal activity against fluconazole-resistant Candida albicans CaR measured after 24 hrs by micro-broth dilution assay; assay type: functional
Candida albicans [8] = assay: Antifungal activity against fluconazole-resistant Candida albicans 17 measured after 24 hrs by micro-broth dilution assay; assay type: functional
[9] = Ratio of hemolysis activity in rabbit RBC to MIC for Candida albicans; assay type: toxicity; details: rabbit red blood cells (RBC)
Cryptococcus neoformans = assay: Antifungal activity against Cryptococcus neoformans CGMCC2.3161 measured after 72 hrs by micro-broth dilution assay; assay type: functional
Candida albicans [10] = assay: Antibiofilm activity against FCZ-Resistant Candida albicans CPCC400616 assessed as sessile minimum inhibitory concentration of biofilm formation at 50% after 24 hrs by XTT assay; assay type: functional
Candida albicans [11] = assay: Antibiofilm activity against FCZ-Resistant Candida albicans CPCC400616 assessed as sessile minimum inhibitory concentration of biofilm formation at 80% after 3 hrs by XTT assay; assay type: functional
Aspergillus fumigatus = assay: Antifungal activity against Aspergillus fumigatus CGMCC 3.7795 measured after 72 hrs by micro-broth dilution assay; assay type: functional
Candida albicans [12] = assay: Fungicidal activity against Candida albicans CPCC400616 measured after 48 hrs; assay type: functional
Candida parapsilosis = assay: Antifungal activity against Candida parapsilosis ATCC 22019 measured after 24 hrs by micro-broth dilution assay; assay type: functional; details: Lodderomyces parapsilosis
Candida albicans [13] = assay: Antibiofilm activity against FCZ-Resistant Candida albicans CPCC400616 assessed as sessile minimum inhibitory concentration of biofilm formation at 50% after 1.5 hrs by XTT assay; assay type: functional
[14] = Ratio of MFC for fungicidal activity against Candida albicans CPCC400616 to MIC for Antifungal activity against Candida albicans CPCC400616; assay type: functional; details: time 24 hrs
[Candida] zeylanoides = Antifungal activity against Candida zeylanoides CMGCC2.3739 measured after 24 hrs by micro-broth dilution assay; assay type: functional; details: Dujonia zeylanoides
Candida albicans [15] = assay: Antifungal activity against fluconazole-resistant Candida albicans strain 904 measured after 24 hrs by micro-broth dilution assay; assay type: functional
Candida albicans [16] = assay: Antibiofilm activity against FCZ-Resistant Candida albicans CPCC400616 assessed as sessile minimum inhibitory concentration of biofilm formation at 80% after 1.5 hrs by XTT assay; assay type: functional
Pichia kudriavzevii = assay: Antifungal activity against Candida krusei AS 2.1045 measured after 24 hrs by micro-broth dilution assay; assay type: functional
Candida albicans [17] = assay: Antifungal activity against Candida albicans ATCC SC5314 measured after 24 hrs by micro-broth dilution assay; assay type: functional
Candida albicans [18] = assay: Antibiofilm activity against FCZ-Resistant Candida albicans CPCC400616 assessed as sessile minimum inhibitory concentration of biofilm formation at 50% after 6 hrs by XTT assay; assay type: functional
Nakaseomyces glabratus = assay: Antifungal activity against clinical isolate Candida glabrata measured after 24 hrs by micro-broth dilution assay; assay type: functional
Candida albicans [19] = assay: Inhibition of CYP51 in azole-resistant Candida albicans ATCC […] assessed as Lanosterol level at 0.03125 ug/ml incubated for 16 hrs by LC-MS analysis relative to control; parameters: scale not given: the % may be the effect or the level left; details: dose 0.03125 µg/ml
Candida albicans [20] = assay: Inhibition of CYP51 in azole-resistant Candida albicans ATCC […] assessed as Obtusifoliol level at 0.125 ug/ml incubated for 16 hrs by LC-MS analysis relative to control; parameters: scale not given: the % may be the effect or the level left; details: dose 0.125 µg/ml
Candida albicans [21] = assay: Inhibition of CYP51 in azole-resistant Candida albicans ATCC […] assessed as Obtusifoliol level at 0.03125 ug/ml incubated for 16 hrs by LC-MS analysis relative to control; parameters: scale not given: the % may be the effect or the level left; details: dose 0.03125 µg/ml
Candida albicans [22] = assay: Inhibition of CYP51 in azole-resistant Candida albicans ATCC […] assessed as Lanosterol level at 0.125 ug/ml incubated for 16 hrs by LC-MS analysis relative to control; parameters: scale not given: the % may be the effect or the level left; details: dose 0.125 µg/ml
Candida albicans [23] = assay: Inhibition of CYP51 in azole-resistant Candida albicans ATCC […] assessed as Obtusifoliol level at 0.5 ug/ml incubated for 16 hrs by LC-MS analysis relative to control; parameters: scale not given: the % may be the effect or the level left; details: dose 0.5 µg/ml
Candida albicans [24] = assay: Inhibition of CYP51 in azole-resistant Candida albicans ATCC […] assessed as Eburicol level at 0.125 ug/ml incubated for 16 hrs by LC-MS analysis relative to control; parameters: scale not given: the % may be the effect or the level left; details: dose 0.125 µg/ml
Candida albicans [25] = assay: Inhibition of CYP51 in azole-resistant Candida albicans ATCC […] assessed as Lanosterol level at 0.5 ug/ml incubated for 16 hrs by LC-MS analysis relative to control; parameters: scale not given: the % may be the effect or the level left; details: dose 0.5 µg/ml
Candida albicans [26] = assay: Inhibition of CYP51 in azole-resistant Candida albicans ATCC […] assessed as Eburicol level at 0.03125 ug/ml incubated for 16 hrs by LC-MS analysis relative to control; parameters: scale not given: the % may be the effect or the level left; details: dose 0.03125 µg/ml
Candida albicans [27] = assay: Inhibition of CYP51 in azole-resistant Candida albicans ATCC […] assessed as ergosterol level at 2 ug/ml incubated for 16 hrs by LC-MS analysis relative to control; parameters: scale not given: the % may be the effect or the level left; details: dose 2.0 µg/ml
Candida albicans [28] = assay: Inhibition of CYP51 in azole-resistant Candida albicans ATCC […] assessed as ergosterol level at 0.5 ug/ml incubated for 16 hrs by LC-MS analysis relative to control; parameters: scale not given: the % may be the effect or the level left; details: dose 0.5 µg/ml
Candida albicans [29] = assay: Inhibition of CYP51 in azole-resistant Candida albicans ATCC […] assessed as Lanosterol level at 8 ug/ml incubated for 16 hrs by LC-MS analysis relative to control; parameters: scale not given: the % may be the effect or the level left; details: dose 8.0 µg/ml
Candida albicans [30] = assay: Inhibition of CYP51 in azole-resistant Candida albicans ATCC […] assessed as inhibition of ergosterol biosynthesis by measuring ergosterol content at 8 ug/ml incubated for 16 hrs by LC-MS analysis relative to control; parameters: scale not given: the % may be the effect or the level left; details: dose 8.0 µg/ml
Candida albicans [31] = assay: Inhibition of CYP51 in azole-resistant Candida albicans ATCC […] assessed as ergosterol level at 0.125 ug/ml incubated for 16 hrs by LC-MS analysis relative to control; parameters: scale not given: the % may be the effect or the level left; details: dose 0.125 µg/ml
Candida albicans [32] = assay: Inhibition of CYP51 in azole-resistant Candida albicans ATCC […] assessed as Eburicol level at 2 ug/ml incubated for 16 hrs by LC-MS analysis relative to control; parameters: scale not given: the % may be the effect or the level left; details: dose 2.0 µg/ml
Candida albicans [33] = assay: Inhibition of CYP51 in azole-resistant Candida albicans ATCC […] assessed as ergosterol level at 0.03125 ug/ml incubated for 16 hrs by LC-MS analysis relative to control; parameters: scale not given: the % may be the effect or the level left; details: dose 0.03125 µg/ml
Candida albicans [34] = assay: Inhibition of CYP51 in azole-resistant Candida albicans ATCC […] assessed as Lanosterol level at 2 ug/ml incubated for 16 hrs by LC-MS analysis relative to control; parameters: scale not given: the % may be the effect or the level left; details: dose 2.0 µg/ml
Candida albicans [35] = assay: Inhibition of CYP51 in azole-resistant Candida albicans ATCC […] assessed as Eburicol level at 0.5 ug/ml incubated for 16 hrs by LC-MS analysis relative to control; parameters: scale not given: the % may be the effect or the level left; details: dose 0.5 µg/ml
Candida albicans [36] = assay: Inhibition of CYP51 in azole-resistant Candida albicans ATCC […] assessed as Obtusifoliol level at 8 ug/ml incubated for 16 hrs by LC-MS analysis relative to control; parameters: scale not given: the % may be the effect or the level left; details: dose 8.0 µg/ml
Candida albicans [37] = assay: Inhibition of CYP51 in azole-resistant Candida albicans ATCC […] assessed as Obtusifoliol level at 2 ug/ml incubated for 16 hrs by LC-MS analysis relative to control; parameters: scale not given: the % may be the effect or the level left; details: dose 2.0 µg/ml
Candida albicans [38] = assay: Inhibition of CYP51 in azole-resistant Candida albicans ATCC […] assessed as Eburicol level at 8 ug/ml incubated for 16 hrs by LC-MS analysis relative to control; parameters: scale not given: the % may be the effect or the level left; details: dose 8.0 µg/ml

Fc1ccc(Br)c(C[Se]C(Cn2ccnc2)c2ccc(Cl)cc2Cl)c1 (stereo not drawn)
Activity (Erythrocyte): 0.49 µg/mL | MIC (Candida albicans [1]): 0.25 µg/mL (≈ 0.493 µM) | Activity (Candida albicans [2]): >128 µg/mL | Activity (Candida albicans [3]): >128 µg/mL | MIC (Candida albicans [4]): 0.13 µg/mL (≈ 0.256 µM) | Activity (Candida albicans [5]): 8 µg/mL | MIC (Candida albicans [6]): 0.02 µg/mL (≈ 0.0394 µM) | MIC (Candida albicans [7]): 0.13 µg/mL (≈ 0.256 µM) | MIC (Candida albicans [8]): 0.03 µg/mL (≈ 0.0592 µM) | selectivity ratio [9]: 256 | MIC (Cryptococcus neoformans): 0.25 µg/mL (≈ 0.493 µM) | Activity (Candida albicans [10]): 128 µg/mL | Activity (Candida albicans [11]): 64 µg/mL | MIC (Aspergillus fumigatus): 0.5 µg/mL (≈ 0.986 µM) | MIC (Candida albicans [12]): 0.0625 µg/mL (≈ 0.123 µM) | MIC (Candida parapsilosis): 0.02 µg/mL (≈ 0.0394 µM) | Activity (Candida albicans [13]): 1 µg/mL | MFC/MIC ratio [14]: 4 | MIC ([Candida] zeylanoides): 0.5 µg/mL (≈ 0.986 µM) | MIC (Candida albicans [15]): 0.13 µg/mL (≈ 0.256 µM) | Activity (Candida albicans [16]): 8 µg/mL | MIC (Pichia kudriavzevii): 0.13 µg/mL (≈ 0.256 µM) | MIC (Candida albicans [17]): 0.01 µg/mL (≈ 0.0197 µM) | Activity (Candida albicans [18]): 8 µg/mL | MIC (Nakaseomyces glabratus): 0.5 µg/mL (≈ 0.986 µM)

OC(Cn1cncn1)(Cn1cncn1)c1ccc(F)cc1F [FLUCONAZOLE]
MIC (Candida albicans [1]): > 128 µg/mL | Activity (Candida albicans [19]): 9.8% | Activity (Candida albicans [20]): 11.4% | Activity (Candida albicans [21]): 1.6% | MIC (Candida albicans [4]): > 128 µg/mL | Activity (Candida albicans [22]): 7.2% | MIC (Candida albicans [6]): 4 µg/mL (≈ 13.1 µM) | MIC (Candida albicans [7]): > 128 µg/mL | MIC (Candida albicans [8]): 128 µg/mL (≈ 418 µM) | Activity (Candida albicans [23]): 9% | MIC (Cryptococcus neoformans): 4 µg/mL (≈ 13.1 µM) | Activity (Candida albicans [24]): 6.7% | Activity (Candida albicans [25]): 9.5% | MIC (Aspergillus fumigatus): > 128 µg/mL | Activity (Candida albicans [26]): 2.9% | Activity (Candida albicans [27]): 5.2% | Activity (Candida albicans [28]): 7.1% | Activity (Candida albicans [29]): 9.4% | Activity (Candida albicans [30]): 74.8% | Activity (Candida albicans [31]): 8.3% | MIC (Candida parapsilosis): 4 µg/mL (≈ 13.1 µM) | Activity (Candida albicans [32]): 75.2% | Activity (Candida albicans [33]): 12.2% | MIC ([Candida] zeylanoides): 4 µg/mL (≈ 13.1 µM) | MIC (Candida albicans [15]): > 128 µg/mL | MIC (Pichia kudriavzevii): 32 µg/mL (≈ 104 µM) | MIC (Candida albicans [17]): 1 µg/mL (≈ 3.27 µM) | Activity (Candida albicans [34]): 7.4% | Activity (Candida albicans [35]): 70.6% | Activity (Candida albicans [36]): 9.2% | MIC (Nakaseomyces glabratus): 32 µg/mL (≈ 104 µM) | Activity (Candida albicans [37]): 17.7% | Activity (Candida albicans [38]): 70.6%
